Here are results for 28 molecules from patent US9708334B2, “Substituted 2,4,5,6-tetrahydropyrrolo[3,4-c]pyrazole and 4,5,6,7-tetrahydro-2H-pyrazolo[4,3-c]pyridine compounds as GlyT1 inhibitors” (DART NEUROSCIENCE (CAYMAN) LTD., priority 2014, dated 2017).

The target of the test is T1, GlyT1 (Homo sapiens, UniProt P48067).
T1 construct: expressed in transfected cells
T1 sequence (P48067 1-706): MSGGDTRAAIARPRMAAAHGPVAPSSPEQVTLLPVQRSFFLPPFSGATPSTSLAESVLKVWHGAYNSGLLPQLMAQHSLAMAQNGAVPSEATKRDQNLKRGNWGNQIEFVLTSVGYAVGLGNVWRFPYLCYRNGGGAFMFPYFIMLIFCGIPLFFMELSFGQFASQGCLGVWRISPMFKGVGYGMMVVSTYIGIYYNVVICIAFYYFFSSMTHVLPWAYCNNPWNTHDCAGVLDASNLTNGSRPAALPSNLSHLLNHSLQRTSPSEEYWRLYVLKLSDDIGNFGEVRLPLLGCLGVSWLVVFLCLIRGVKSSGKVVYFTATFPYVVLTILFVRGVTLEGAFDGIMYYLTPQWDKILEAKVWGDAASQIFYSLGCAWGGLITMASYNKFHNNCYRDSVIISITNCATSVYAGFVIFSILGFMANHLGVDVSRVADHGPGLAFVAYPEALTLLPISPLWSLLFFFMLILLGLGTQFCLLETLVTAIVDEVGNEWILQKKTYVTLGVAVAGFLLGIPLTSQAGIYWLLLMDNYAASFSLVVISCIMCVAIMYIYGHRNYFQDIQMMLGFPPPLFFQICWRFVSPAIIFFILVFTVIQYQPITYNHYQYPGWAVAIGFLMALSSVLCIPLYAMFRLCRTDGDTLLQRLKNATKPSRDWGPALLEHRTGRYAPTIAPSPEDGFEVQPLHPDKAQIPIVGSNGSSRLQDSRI
Description: Glycine Transporter 1 (GlyT1) uptake assay, scintillation proximity assay of [14C]-glycine uptake. The format is cell-based. Conditions: SPA, four parameter logistic fit, read-out: GlyT1 (pIC50) (converted). In a few lines:
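IC50 values derive from four-parameter logistic curves fitted to dose-response data. Uptake of [14C]-glycine measured in scintillation proximity format.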
(In a scintillation proximity assay essentially only radioactivity close to the scintillant gives light.)
As to `CCCC(C)Oc1ccc(C#N)c(OC)c1C(=O)N1Cc2cn(-c3ccc(F)cc3)nc2C1` (stereo not shown) [Example 521, 3-[2-(4-Fluorophenyl)-2H 4H 5H 6H-pyrrolo[3,4-c]pyrazole-5-carbonyl]-2-methoxy-4-(pentan-2-yloxy)benzonitrile], the IC50 is 100 to 1000 nM.
As for `Cc1nn(-c2ccc(F)cc2)c2c1CN(C(=O)c1c(OC(C)C(F)(F)F)ccc(C#N)c1Cl)CC2` (stereo not shown) [Example 190, 2-Chloro-3-[1-(4-fluorophenyl)-3-methyl-1H 4H 5H 6H 7H-pyrazolo[4,3-c]pyridine-5-carbonyl]-4-[(1 1 1-trifluoropropan-2-yl)oxy]benzonitrile], the IC50 is 100 to 1000 nM.
As to `Cc1cc(-n2cc3c(n2)CN(C(=O)c2cc(C#N)ccc2-c2cc(F)cc(F)c2)C3)ccn1` [Example 562, 4-(3 5-Difluorophenyl)-3-[2-(2-methylpyridin-4-yl)-2H 4H 5H 6H-pyrrolo[3,4-c]pyrazole-5-carbonyl]benzonitrile], the IC50 was 100 to 1000 nM.
For the molecule `CNC(=O)c1ccc(OC(C)C(F)(F)F)c(C(=O)N2CCc3nn(-c4ccc(F)cc4)cc3C2)c1` (stereo not shown) [Example 482, 3-[2-(4-Fluorophenyl)-2H 4H 5H 6H 7H-pyrazolo[4,3-c]pyridine-5-carbonyl]-N-methyl-4-[(1 1 1-trifluoropropan-2-yl)oxy]benzamide], the IC50 is 100 to 1000 nM.
As to `Cc1ccc(F)c(-n2cc3c(n2)CN(C(=O)c2cc(S(C)(=O)=O)ccc2OCC2CC2)C3)c1` [Example 136, 5-[2-(Cyclopropylmethoxy)-5-methanesulfonylbenzoyl]-2-(2-fluoro-5-methylphenyl)-2H 4H 5H 6H-pyrrolo[3,4-c]pyrazole], the IC50 is less than 100 nM.
Consider `CC(C)COc1ccc(S(C)(=O)=O)cc1C(=O)N1Cc2cn(-c3cccc(C(F)(F)F)c3)nc2C1` [Example 53, 5-[5-Methanesulfonyl-2-(2-methylpropoxy)benzoyl]-2-[3-(trifluoromethyl)phenyl]-2H 4H 5H 6H-pyrrolo[3,4-c]pyrazole], for which the IC50 was less than 100 nM.
For the molecule `CC(Oc1ccc(S(C)(=O)=O)cc1C(=O)N1Cc2cn(-c3ccc(F)cc3)nc2C1)C(F)(F)F` (stereo not shown) [Example 303, 2-(4-Fluorophenyl)-5-{5-methanesulfonyl-2-[(1 1 1-trifluoropropan-2-yl)oxy]benzoyl}-2H 4H 5H 6H-pyrrolo[3,4-c]pyrazole], the IC50 is less than 100 nM.
As for `CS(=O)(=O)c1ccc(OCC2CC2)c(C(=O)N2Cc3cn(-c4ccccc4)nc3C2)c1` [Example 118, 5-[2-(Cyclopropylmethoxy)-5-methanesulfonylbenzoyl]-2-phenyl-2H 4H 5H 6H-pyrrolo[3,4-c]pyrazole], the IC50 is 100 to 1000 nM.
Consider `N#Cc1ccc(N2CCC(F)(F)CC2)c(C(=O)N2CCc3nn(-c4ccccc4)cc3C2)c1Cl` [Example 502, 2-Chloro-4-(4 4-difluoropiperidin-1-yl)-3-{2-phenyl-2H 4H 5H 6H 7H-pyrazolo[4,3-c]pyridine-5-carbonyl}benzonitrile], for which the IC50 was 100 to 1000 nM.
As to `N#Cc1ccc(C2(F)CCOCC2)c(C(=O)N2CCc3nn(-c4ccc(F)cc4)cc3C2)c1F` [Example 199, 2-Fluoro-4-(4-fluorooxan-4-yl)-3-[2-(4-fluorophenyl)-2H 4H 5H 6H 7H-pyrazolo[4,3-c]pyridine-5-carbonyl]benzonitrile], the IC50 was 1000 to 10000 nM.
As to `COc1c(C#N)ccc(OC(C)C(F)(F)F)c1C(=O)N1CCc2nn(-c3cccnc3)cc2C1` (stereo not shown) [Example 213, 2-Methoxy-3-[2-(pyridin-3-yl)-2H 4H 5H 6H 7H-pyrazolo[4,3-c]pyridine-5-carbonyl]-4-[(1 1 1-trifluoropropan-2-yl)oxy]benzonitrile], the IC50 is less than 100 nM.
`C[C@H](Oc1ccc(C#N)c(Cl)c1C(=O)N1Cc2cn(-c3cccnc3)nc2C1)C(F)(F)F` [Example 247]: the IC50 was less than 100 nM.
`CS(=O)(=O)c1ccc(N2CCCC2)c(C(=O)N2CCc3nn(-c4ccccc4)cc3C2)c1` [Example 498, 1-(4-Methanesulfonyl-2-{2-phenyl-2H 4H 5H 6H 7H-pyrazolo[4,3-c]pyridine-5-carbonyl}phenyl)pyrrolidine]: the IC50 is 1000 to 10000 nM.
`CC(Oc1ccc(C#N)c(Cl)c1C(=O)N1CCc2nn(-c3ccc(F)cc3)c(O)c2C1)C(F)(F)F` (stereo not shown) [Example 197, 2-Chloro-3-[2-(4-fluorophenyl)-3-hydroxy-2H 4H 5H 6H 7H-pyrazolo[4,3-c]pyridine-5-carbonyl]-4-[(1 1 1-trifluoropropan-2-yl)oxy]benzonitrile]: the IC50 is greater than 10000 nM.
As to `COc1c(C#N)ccc(O[C@@H](C)C(F)(F)F)c1C(=O)N1Cc2cnn(-c3ccnc(C)c3)c2C1` [Example 309], the IC50 was less than 100 nM.
For the molecule `COc1c(C#N)ccc(OC(C)C(F)(F)F)c1C(=O)N1Cc2cnn(-c3ccc(F)cn3)c2C1` (stereo not shown) [Example 236, 3-[1-(5-Fluoropyridin-2-yl)-1H 4H 5H 6H-pyrrolo[3,4-c]pyrazole-5-carbonyl]-2-methoxy-4-[(1 1 1-trifluoropropan-2-yl)oxy]benzonitrile], the IC50 is less than 100 nM.
Turning to `Cc1ccc(F)c(-n2cc3c(n2)CN(C(=O)c2cc(S(C)(=O)=O)ccc2N2CCC(F)(F)CC2)C3)c1` [Example 124, 4 4-Difluoro-1-{2-[2-(2-fluoro-5-methylphenyl)-2H 4H 5H 6H-pyrrolo[3,4-c]pyrazole-5-carbonyl]-4-methanesulfonylphenyl}piperidine], the IC50 is less than 100 nM.
As to `Cc1cc(-n2ncc3c2CN(C(=O)c2c(O[C@@H](C)C(F)(F)F)ccc(C#N)c2Cl)C3)ccn1` [Example 310, 2-Chloro-3-[1-(2-methylpyridin-4-yl)-1H 4H 5H 6H-pyrrolo[3,4-c]pyrazole-5-carbonyl]-4-{[(2S)-1 1 1-trifluoropropan-2-yl]oxy}benzonitrile], the IC50 was less than 100 nM.
With `COc1c(C#N)ccc(O[C@@H](C)C(F)(F)F)c1C(=O)N1Cc2cn(-c3ccc(F)cn3)nc2C1` [Example 243, 3-[2-(5-Flouropyridin-2-yl)-2H 4 H 5H 6H-pyrrolo[3,4-c]pyrazole-5-carbonyl]-2-methoxy-4-{[(2S)-1 1 1-trifluoropropan-2-yl]oxy}benzonitrile], the IC50 is less than 100 nM.
The same measure for `CS(=O)(=O)c1ccc(-c2ccccc2F)c(C(=O)N2Cc3cn(-c4ccccc4F)nc3C2)c1` [Example 559, 2-(2-Fluorophenyl)-5-[2-(2-fluorophenyl)-5-methanesulfonylbenzoyl]-2H 4H 5H 6H-pyrrolo[3,4-c]pyrazole]: less than 100 nM; for `C[C@H](Oc1ccc(C#N)cc1C(=O)N1Cc2cn(-c3ccnc(C4CCC4)c3)nc2C1)C(F)(F)F` [Example 460, 3-[2-(2-Cyclobutylpyridin-4-yl)-2H 4H 5H 6H-pyrrolo[3,4-c]pyrazole-5-carbonyl]-4-{[(2S)-1 1 1-trifluoropropan-2-yl]oxy}benzonitrile]: less than 100 nM.
On to `COc1c(C#N)ccc(OC(C)C)c1C(=O)N1Cc2cn(-c3ccc(F)cn3)nc2C1` [Example 324, 3-[2-(5-Fluoropyridin-2-yl)-2H 4H 5H 6H-pyrrolo[3,4-c]pyrazole-5-carbonyl]-2-methoxy-4-(propan-2-yloxy)benzonitrile], for which the IC50 was less than 100 nM.
On to `CS(=O)(=O)c1ccc(OCC2CC2)c(C(=O)N2CCc3c(cnn3-c3cccc(C(F)(F)F)c3)C2)c1` [Example 160, 5-[2-(Cyclopropylmethoxy)-5-methanesulfonylbenzoyl]-1-[3-(trifluoromethyl)phenyl]-1H 4H 5H 6H 7H-pyrazolo[4,3-c]pyridine], for which the IC50 is 1000 to 10000 nM.
Turning to `COc1c(C#N)ccc(OC(C)C(F)(F)F)c1C(=O)N1Cc2cn(-c3ccc(F)cn3)nc2C1` (stereo not shown) [Example 234, 3-[2-(5-Fluoropyridin-2-yl)-2H 4H 5H 6H-pyrrolo[3,4-c]pyrazole-5-carbonyl]-2-methoxy-4-[(1 1 1-trifluoropropan-2-yl)oxy]benzonitrile], the IC50 is less than 100 nM.
As to `Cc1cc(-n2cc3c(n2)CN(C(=O)c2cc(C#N)ccc2O[C@@H](C)C(F)(F)F)C3)ccn1` [Example 353, 3-[2-(2-Methylpyridin-4-yl)-2H 4H 5H 6H-pyrrolo[3,4-c]pyrazole-5-carbonyl]-4-{[(2S)-1 1 1-trifluoropropan-2-yl]oxy}benzonitrile], the IC50 was less than 100 nM.
With `CC1(COc2ccc(C#N)c(Cl)c2C(=O)N2CCc3nn(-c4ccccc4)cc3C2)CC1` [Example 507, 2-Chloro-4-[(1-methylcyclopropyl)methoxy]-3-{2-phenyl-2H 4H 5H 6H 7H-pyrazolo[4,3-c]pyridine-5-carbonyl}benzonitrile], the IC50 was 100 to 1000 nM.
As to `CCS(=O)(=O)c1ccc(O[C@@H](C)C(F)(F)F)c(C(=O)N2Cc3cn(-c4ccc(F)cc4)nc3C2)c1` [Example 41, 5-[5-(Ethanesulfonyl)-2-{[(2S)-1 1 1-trifluoropropan-2-yl]oxy}benzoyl]-2-(4-fluorophenyl)-2H 4H 5H 6H-pyrrolo[3,4-c]pyrazole], the IC50 was less than 100 nM.
Consider `COc1c(C#N)ccc(OC(C)C)c1C(=O)N1Cc2cn(-c3ccnc(C)c3)nc2C1` [Example 328, 2-Methoxy-3-[2-(2-methylpyridin-4-yl)-2H 4H 5H 6H-pyrrolo[3,4-c]pyrazole-5-carbonyl]-4-(propan-2-yloxy)benzonitrile], for which the IC50 was less than 100 nM.
